Measured values reported in ChEMBL document CHEMBL3885861, “Open TG-GATES”.

Species on record: Rattus norvegicus
Assay: Open TG-GATES - Regimen: Single
Assay type: toxicity, organism-based, Sprague-Dawley
Set-up: regimen Single, gender Male, age 6 weeks
Details: in vivo, po, 0 mg/kg, route gavage, dose level Control; for APTT / Bas / Eos / Fbg / Hb / Ht / Lym / MCH / MCHC / MCV / Mono / Neu / PT / Plat / RBC / Ret / WBC: tissue Blood; for LIVER: tissue Liver; for A/G / ALP / ALT / AST / BUN / CRE / Ca / Cl / DBIL / GLC / IP / K / LDH / Na / PL / RALB / TBIL / TC / TG / TP / gamma-GTP: tissue Plasma

With `O=[N+]([O-])c1ccc(O)c([N+](=O)[O-])c1` [2,4-DINITROPHENOL] the TERMINAL_BW (3 h) was 200.9 g, the APTT (3 h) was 15.9 s and the Bas (3 h) was 0%. For the same molecule, the Eos (3 h) was 0.8%, the Fbg (3 h) was 241.6 mg/dL and the Hb (3 h) was 13.2 g/dL. It also gave a Ht (3 h) of 39.5%, a Lym (3 h) of 74% and an MCH (3 h) of 21.6 pg. For the same molecule, the MCHC (3 h) was 33.5%, the MCV (3 h) was 64.4 fL and the Mono (3 h) was 8.4%. The Neu (3 h) was 16.8%, the PT (3 h) was 11.8 s and the Plat (3 h) was 109.2 x10_4/uL. For the same molecule, the RBC (3 h) was 613.4 x10_4/ul, the Ret (3 h) was 9.5% and the WBC (3 h) was 98.2 x10_2/uL. It also gave an LIVER (3 h) of 9.3 g, an A/G (3 h) of 2.4 and an ALP (3 h) of 1373.4 IU/L. It also gave an ALT (3 h) of 40.8 IU/L, an AST (3 h) of 69.4 IU/L and a BUN (3 h) of 11 mg/dL. It also gave a CRE (3 h) of 0.3 mg/dL, a Ca (3 h) of 11.1 mg/dL and a Cl (3 h) of 103.6 meq/L. The DBIL (3 h) was 0.01 mg/dL, the GLC (3 h) was 175.6 mg/dL and the IP (3 h) was 9.4 mg/dL. For the same molecule, the K (3 h) was 4.4 meq/L, the LDH (3 h) was 117.8 IU/L and the Na (3 h) was 138.6 meq/L. The PL (3 h) was 150.4 mg/dL, the RALB (3 h) was 3.7 g/dL and the TBIL (3 h) was 0.044 mg/dL. It also gave a TC (3 h) of 87.2 mg/dL, a TG (3 h) of 52.4 mg/dL and a TP (3 h) of 5.3 g/dL. The gamma-GTP (3 h) was 0 IU/L, the TERMINAL_BW (6 h) was 197.1 g and the APTT (6 h) was 16.4 s. The Bas (6 h) was 0%, the Eos (6 h) was 0.8% and the Fbg (6 h) was 232 mg/dL. It also gave a Hb (6 h) of 13.4 g/dL, a Ht (6 h) of 39.8% and a Lym (6 h) of 77.2%. The MCH (6 h) was 21.5 pg, the MCHC (6 h) was 33.6% and the MCV (6 h) was 63.9 fL. It also gave a Mono (6 h) of 9.6%, a Neu (6 h) of 12.4% and a PT (6 h) of 12.2 s. The Plat (6 h) was 127 x10_4/uL, the RBC (6 h) was 623.4 x10_4/ul and the Ret (6 h) was 8.9%. It also gave a WBC (6 h) of 127.4 x10_2/uL, an LIVER (6 h) of 8.9 g and an A/G (6 h) of 2.5. The ALP (6 h) was 1236 IU/L, the ALT (6 h) was 36.4 IU/L and the AST (6 h) was 63.4 IU/L. It also gave a BUN (6 h) of 10.4 mg/dL, a CRE (6 h) of 0.4 mg/dL and a Ca (6 h) of 10.8 mg/dL. For the same molecule, the Cl (6 h) was 104.8 meq/L, the DBIL (6 h) was 0.01 mg/dL and the GLC (6 h) was 191.6 mg/dL. The IP (6 h) was 9.3 mg/dL, the K (6 h) was 4.4 meq/L and the LDH (6 h) was 96.8 IU/L. For the same molecule, the Na (6 h) was 138.8 meq/L, the PL (6 h) was 135.4 mg/dL and the RALB (6 h) was 3.9 g/dL. It also gave a TBIL (6 h) of 0.056 mg/dL, a TC (6 h) of 79.8 mg/dL and a TG (6 h) of 52.4 mg/dL. The TP (6 h) was 5.5 g/dL, the gamma-GTP (6 h) was 0 IU/L and the TERMINAL_BW (9 h) was 203.5 g. The APTT (9 h) was 15.9 s, the Bas (9 h) was 0% and the Eos (9 h) was 1%. The Fbg (9 h) was 234.6 mg/dL, the Hb (9 h) was 13 g/dL and the Ht (9 h) was 38.7%. The Lym (9 h) was 76.2%, the MCH (9 h) was 22 pg and the MCHC (9 h) was 33.7%. For the same molecule, the MCV (9 h) was 65.1 fL, the Mono (9 h) was 8.8% and the Neu (9 h) was 14.6%. It also gave a PT (9 h) of 12.2 s, a Plat (9 h) of 117.6 x10_4/uL and an RBC (9 h) of 595.4 x10_4/ul. It also gave a Ret (9 h) of 9.4%, a WBC (9 h) of 108 x10_2/uL and an LIVER (9 h) of 8.7 g. The A/G (9 h) was 2.5, the ALP (9 h) was 1123.8 IU/L and the ALT (9 h) was 32.8 IU/L. The AST (9 h) was 63.8 IU/L, the BUN (9 h) was 11.6 mg/dL and the CRE (9 h) was 0.3 mg/dL. For the same molecule, the Ca (9 h) was 10.9 mg/dL, the Cl (9 h) was 104.2 meq/L and the DBIL (9 h) was 0.01 mg/dL. For the same molecule, the GLC (9 h) was 195.2 mg/dL, the IP (9 h) was 10.4 mg/dL and the K (9 h) was 4.6 meq/L. The LDH (9 h) was 109.6 IU/L, the Na (9 h) was 139.4 meq/L and the PL (9 h) was 140 mg/dL. The RALB (9 h) was 3.8 g/dL, the TBIL (9 h) was 0.044 mg/dL and the TC (9 h) was 84.6 mg/dL. It also gave a TG (9 h) of 47.8 mg/dL, a TP (9 h) of 5.4 g/dL and a gamma-GTP (9 h) of 0.2 IU/L. It also gave a TERMINAL_BW (24 h) of 219.1 g, an APTT (24 h) of 16.3 s and a Bas (24 h) of 0%. For the same molecule, the Eos (24 h) was 1.2%, the Fbg (24 h) was 228.6 mg/dL and the Hb (24 h) was 12.7 g/dL. The Ht (24 h) was 37.5%, the Lym (24 h) was 72% and the MCH (24 h) was 21.1 pg. It also gave an MCHC (24 h) of 33.8%, an MCV (24 h) of 62.5 fL and a Mono (24 h) of 9.4%. It also gave a Neu (24 h) of 17.8%, a PT (24 h) of 11.6 s and a Plat (24 h) of 138.4 x10_4/uL. It also gave an RBC (24 h) of 600 x10_4/ul, a Ret (24 h) of 8.1% and a WBC (24 h) of 106.6 x10_2/uL. It also gave an LIVER (24 h) of 10.9 g, an A/G (24 h) of 2.4 and an ALP (24 h) of 1480.2 IU/L. The ALT (24 h) was 37.4 IU/L, the AST (24 h) was 62.4 IU/L and the BUN (24 h) was 17 mg/dL. It also gave a CRE (24 h) of 0.4 mg/dL, a Ca (24 h) of 11.4 mg/dL and a Cl (24 h) of 103.2 meq/L. It also gave a DBIL (24 h) of 0.012 mg/dL, a GLC (24 h) of 185.6 mg/dL and an IP (24 h) of 7.6 mg/dL. The K (24 h) was 4.6 meq/L, the LDH (24 h) was 84.2 IU/L and the Na (24 h) was 139 meq/L. The PL (24 h) was 160.4 mg/dL, the RALB (24 h) was 3.9 g/dL and the TBIL (24 h) was 0.034 mg/dL. The TC (24 h) was 84 mg/dL, the TG (24 h) was 120.4 mg/dL and the TP (24 h) was 5.5 g/dL. For the same molecule, the gamma-GTP (24 h) was 0.2 IU/L.
